Laboratory results from US9421276B2, “Clickable polyoxetane carrier for drug delivery” (VIRGINIA COMMONWEALTH UNIVERSITY, priority 2012, dated 2016).

Legend:
[1] = test system: Human glioma U1242/luc-GFP cells; experiment: Cell toxicity assay (luciferase assay); format: cell-based; conditions: 48 h, carriers at concentrations up to 33 μM
Procedure: Cell toxicity assays. Human glioma U1242/luc-GFP cells stably expressing the reporter luciferase were exposed to various CPT equivalent concentrations of polymer-CPT conjugates or polymer control samples (n=4) in a 96-well microtiter plate for 48 h followed by luciferase assay to assess survival of cells.

[2] = physiological pH, background statement; cited from earlier work

**Q.** Which results are given for `CC[C@@]1(O)C(=O)OCc2c1cc1n(c2=O)Cc2cc3ccccc3nc2-1` [CPT, 20(S)-Camptothecin]?
**A.** cytotoxicity [1]: dose-dependent toxic; stability of lactone form [2]: rapidly transforms into the carboxylate form
